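These data come from cells grown in 96-well plates and exposed to compound for 48 hours at five concentrations. TGI: total growth inhibition.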
Key:
Test in all cases: NCI-60 cell line screen, 48 h
[1] = system: NCI-H522 lung
[2] = system: SK-MEL-5 melanoma
[3] = system: UO-31 renal
[4] = system: M14 melanoma
[5] = system: COLO 205 colon
[6] = system: HL-60(TB) leukemia
[7] = system: HT29 colon
[8] = system: TK-10 renal
[9] = system: HCT-15 colon
[10] = system: SK-MEL-2 melanoma
[11] = system: NCI-H23 lung
[12] = system: RXF 393 renal
[13] = system: LOX IMVI melanoma
[14] = system: OVCAR-5 ovarian
[15] = system: K-562 leukemia
[16] = system: OVCAR-4 ovarian
[17] = system: MOLT-4 leukemia
[18] = system: HOP-92 NSCLC
[19] = system: A498 renal
[20] = system: DLD-1 colon
[21] = system: EKVX NSCLC
[22] = system: SK-MEL-28 melanoma
[23] = system: 786-0 renal
[24] = system: KM20L2 colon
[25] = system: DMS 273 small cell lung
[26] = system: RPMI-8226 leukemia
[27] = system: M19-MEL melanoma
[28] = system: IGROV1 ovarian
[29] = system: HOP-18 NSCLC
[30] = system: CAKI-1 renal
[31] = system: SK-OV-3 ovarian
[32] = system: DMS 114 small cell lung
[33] = system: SR leukemia
[34] = system: UACC-257 melanoma
[35] = system: HCT-116 colon
[36] = system: UACC-62 melanoma
[37] = system: A549 NSCLC
[38] = system: MALME-3M melanoma
[39] = system: LXFL 529 NSCLC
[40] = system: SNB-19 CNS
[41] = system: SF-295 CNS
[42] = system: OVCAR-8 ovarian
[43] = system: NCI-H460 lung
[44] = system: ACHN renal
[45] = system: CCRF-CEM leukemia
[46] = system: SF-268 CNS
[47] = system: U251 CNS
[48] = system: SW-620 colon
[49] = system: HCC-2998 colon
[50] = system: SN12C renal
[51] = system: HOP-62 NSCLC
[52] = system: XF 498 CNS
[53] = system: NCI-H226 lung
[54] = system: SF-539 CNS
[55] = system: SNB-75 CNS
[56] = system: SNB-78 CNS
[57] = system: OVCAR-3 ovarian
[58] = system: KM12 colon
[59] = system: RXF-631 renal

Measured: TGI

CC(=O)OCC1OC(n2c(=O)[nH]c(=O)c3n[nH]nc32)C(OC(C)=O)C(OC(C)=O)C1OC(C)=O (configuration not stated)
not listed: [53] | [54] | [55] | [56] | [57] | [58] | [59]
> 100 µM: all other assays above

CC(C)N(C(=O)C12C3C4C5(C(=O)O)C(C1C35I)C42C(=O)O)C(C)C (configuration not stated)
not listed: [10] | [12] | [13] | [26] | [29] | [30] | [52]
> 100 µM: all other assays above

COc1ccc(N2C(=O)[C@@H](N=[N+]=[N-])[C@@H]2[C@H]2COC(C)(C)O2)cc1
not listed: [8] | [13] | [19] | [20] | [52] | [59]
> 100 µM: all other assays above
